A word on the IC50: it is the midpoint of a concentration-inhibition curve.

Format in all cases: cell-based
One test has as its system MKN45 cells. Description: MKN45 cell proliferation assay (CellTiter-Glo). Conditions: Homo sapiens, MKN-45, 72 h; MKN45 cell line; 3 days incubation; at least duplicate experiments; read-out: Prolif. IC50. A general note: Cellular ATP, detected with luciferase, serves as a proxy for viable cell number.
A further test relates to Karpas-299 cells. Description: Karpas-299 cell proliferation assay (CellTiter-Glo). The settings on record: Homo sapiens, 72 h; Karpas-299 cell line (NPM-ALK); 3 days incubation; at least duplicate experiments; read-out: Prolif. IC50.
The target of another test is T1, Aurora B (Homo sapiens, UniProt Q96GD4).
T1 construct: HT-29 cells grown in complete growth media
Description: Aurora B cell mechanistic assay (HT-29), phospho-Histone H3 (Ser10) ELISA. The settings on record: HT-29 cell line; inhibition of phospho-Histone H3 (Ser10); at least duplicate experiments (italicized if single experiment); read-out: Aurora B mech IC50. On the procedure: The cellular activity of the compounds of the present invention against Aurora B may be determined by the following procedure. HT-29 cells grown in complete growth media (McCoy's 5A, 10% FCS, 1% L-glutamine) were plated into wells of a 96 well tissue culture plate (Falcon 3072) at a cell density of 4×10^4 cells/0.09 ml media/well. Cells were subsequently incubated overnight in a 5% CO2 humidified 37° C. incubator. The following day 10 μl of a 10× stock of test compound serially diluted in media was added to the cells and incubated for 1 h at 37° C. at which time Calyculin A (Cell Signaling #9902) was added at a concentration of 100 nM and cells incubated for an additional 30 minutes in a 5% CO2 humidified 37° C. incubator. Media was then aspirated and cells lysed using a Triton based lysis buffer. Lysates were transferred to a pre-coated anti-Histone H3 antibody coated plate supplied by Cell Signaling in their PathScan phospho-Histone H3 (Ser10) ELISA kit (#7155). After an overnight incubation with lysate the ELISA was continued following the manufacturer's instructions. Signal was measured on a Wallac Victor plate reader at 450 nm. DMSO control treated cells served as 100% signal and an Aurora B kinase inhibitor served as 100% inhibition. The percent inhibition of phospho-Histone H3 (Ser10) was expressed as % control. IC50 values were calculated from the percent control data using a standard four-parameter model.
The IC50 values of exemplary compounds of the present invention determined in a Aurora B cell mechanistic assay using the HT-29 cell line according to the procedures described herein in at least duplicate experiments are abbreviated as follows and are shown in Table 4: A, IC50≦0.05 μM; B, 0.05 μM<IC50≦0.2 μM; C, 0.2 μM<IC50≦1 μM; D, IC50>1 μM; ND, not determined. If only data from single experiments are available, the abbreviations are italicized. The Example # of Table 4 corresponds to the compound example number as illustrated in the Examples section.
On the technique in general: ELISA stands for enzyme-linked immunosorbent assay.

The target in another test is T2, RON (Homo sapiens, UniProt Q04912).
T2 sequence (Q04912 913-1400): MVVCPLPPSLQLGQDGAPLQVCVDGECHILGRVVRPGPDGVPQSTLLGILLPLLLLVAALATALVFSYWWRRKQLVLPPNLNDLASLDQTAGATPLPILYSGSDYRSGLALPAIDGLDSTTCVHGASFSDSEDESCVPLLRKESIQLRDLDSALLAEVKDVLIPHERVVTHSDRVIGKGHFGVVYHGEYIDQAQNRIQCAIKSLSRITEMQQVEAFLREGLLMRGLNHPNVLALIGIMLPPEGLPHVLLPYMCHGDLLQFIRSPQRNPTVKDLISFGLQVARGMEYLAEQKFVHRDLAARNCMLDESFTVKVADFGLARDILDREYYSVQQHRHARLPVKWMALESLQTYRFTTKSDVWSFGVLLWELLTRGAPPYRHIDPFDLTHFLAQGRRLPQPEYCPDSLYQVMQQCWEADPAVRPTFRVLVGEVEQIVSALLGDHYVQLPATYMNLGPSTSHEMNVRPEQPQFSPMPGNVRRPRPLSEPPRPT
Kind of test: sfRON cell mechanistic assay (HeLa), phosphorylated RON ELISA. The settings on record: HeLa cells transfected with sfRON; inhibition of phosphorylated RON; four hours incubation; at least duplicate experiments; read-out: sfRON mech IC50. On the procedure:
The cellular activity of the compounds of the present invention against RON may be determined by the following procedure. HeLa cells were plated in Falcon 3072 96-well plates in growth media (DMEM, 10% FBS, 1% L-glutamine) at a density of 10000 cells/well and incubated at 37° C., 5% CO2 overnight. The following day, cells were transfected with 0.2 μg sfRON-pcDNA plasmid DNA with 0.5 μL Lipofectamine-2000 per well in the presence of 50 μL OPTI-MEM, incubated at 37° C., 5% CO2 overnight. Costar 3915 96-well assay plates were coated with rabbit Anti-RON antibody at 2.0 μg/mL, sealed, and incubated overnight at 4° C. On the third day, coated plates were washed with PBS and blocked with 3% BSA. For the sfRON transfected cells, one-tenth volume of a 10× concentration of compounds was added to the wells in a 6-point dilution series. The dilution series was composed of an initial 1:5 dilution of a 10 mM DMSO stock solution of compound in DMSO, followed by a 1:10 dilution in growth media, for a final DMSO concentration on cells of 0.5%. Control wells were treated with 0.5% DMSO. The typical range of dilution was 10 μM to 3 nM. Once compound was added to the cells, plates were incubated for four hours at 37° C., 5% CO2. Plates were then washed in PBS, and lysed in triton-based lysis buffer. Lysates were transferred to the blocked capture plates. The phosphorylated RON levels were measured by incubating with a Goat polyclonal antibody against phosphorylated RON ([pYpY1238/1239]) followed by an anti-Goat antibody conjugated to HRP. Signal was measured on a Wallac Victor plate reader with luminance. The DMSO signal of the control wells was defined as 100% and the percent of inhibition of phosphorylated RON was expressed as percent of control. IC50 values were determined from the percent of control data using a standard four-parameter model.
The IC50 values of exemplary compounds of the present invention determined in a sfRON cell mechanistic assay using the HeLa cell line according to the procedures described herein in at least duplicate experiments are abbreviated as follows and are shown in Table 3: A, IC50≦0.2 μM; B, 0.2 μM<IC50≦1.0 μM; C, IC50>1 μM; ND, not determined. The Example # of Table 3 corresponds to the compound example number as illustrated in the Examples section.

The structures appear in SMILES notation. Where only a bound is given, the exact number is not on record here.

T1 sequence (Q96GD4 whole entry): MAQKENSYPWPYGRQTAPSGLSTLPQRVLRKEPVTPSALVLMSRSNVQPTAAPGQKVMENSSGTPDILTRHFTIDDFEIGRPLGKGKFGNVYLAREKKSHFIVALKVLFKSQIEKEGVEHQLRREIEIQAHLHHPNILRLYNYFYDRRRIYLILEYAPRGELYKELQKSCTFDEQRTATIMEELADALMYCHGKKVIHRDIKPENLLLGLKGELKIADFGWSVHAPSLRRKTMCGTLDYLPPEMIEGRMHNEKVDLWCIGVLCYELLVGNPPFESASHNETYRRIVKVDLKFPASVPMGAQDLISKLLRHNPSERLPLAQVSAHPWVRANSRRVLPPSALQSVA

Take `CCOc1ccc(F)c(Cl)c1[C@@H](C)c1c[nH]c2ncc(-c3c(C)nn(C[C@@H](O)CO)c3C)cc12` [Example 101, (2R)-3-(4-{3-[(1S)-1-(2-Chloro-6-ethoxy-3-fluorophenyl)ethyl]-1H-pyrrolo[2,3-b]pyridin-5-yl}-3,5-dimethyl-1H-pyrazol-1-yl)propane-1,2-diol]: the IC50 was ≤ 50 nM in the test with MKN45 cells, ≤ 50 nM in the test on Karpas-299 cells and > 1000 nM at Aurora B.
For `COc1ccc(F)c(Cl)c1[C@@H](C)c1c[nH]c2ncc(-c3cn(CC(C)(C)O)nc3C(F)(F)F)cc12` [Example 30, 1-[4-{3-[(1S)-1-(2-Chloro-3-fluoro-6-methoxyphenyl)ethyl]-1H-pyrrolo[2,3-b]pyridin-5-yl}-3-(trifluoromethyl)-1H-pyrazol-1-yl]-2-methylpropan-2-ol], the IC50 with MKN45 cells was 200 to 1000 nM; with Karpas-299 cells, 200 to 1000 nM; at Aurora B, > 1000 nM.
Take `Cc1c(-c2cnc3[nH]cc([C@H](C)c4c(OC[C@@H](O)CO)ccc(F)c4Cl)c3c2)cnn1C` [Example 68, (2S)-3-(3-Chloro-2-{(1S)-1-[5-(1,5-dimethyl-1H-pyrazol-4-yl)-1H-pyrrolo[2,3-b]pyridin-3-yl]ethyl}-4-fluorophenoxy)propane-1,2-diol]: the IC50 with MKN45 cells was > 1000 nM; in the test on Karpas-299 cells, 200 to 1000 nM; at Aurora B, > 1000 nM.
`COc1ccc(F)c(Cl)c1[C@@H](C)c1c[nH]c2ncc(-c3cnn(C)c3Cl)cc12` [Example 59, 3-[(1S)-1-(2-Chloro-3-fluoro-6-methoxyphenyl)ethyl]-5-(5-chloro-1-methyl-1H-pyrazol-4-yl)-1H-pyrrolo[2,3-b]pyridine]: the IC50 is > 1000 nM at RON, 200 to 1000 nM in the test with Karpas-299 cells and > 1000 nM at Aurora B.
As for `COc1ccc(F)c(Cl)c1[C@@H](C)c1c[nH]c2ncc(-c3cn(C)nc3C(F)(F)F)cc12` [Example 29, 3-[(1S)-1-(2-Chloro-3-fluoro-6-methoxyphenyl)ethyl]-5-[1-methyl-3-(trifluoromethyl)-1H-pyrazol-4-yl]-1H-pyrrolo[2,3-b]pyridine], the IC50 with MKN45 cells, with Karpas-299 cells and on Aurora B was > 1000 nM each time.
With `Cc1c(-c2cnc3[nH]cc([C@H](C)c4c(OC[C@H](O)CO)ccc(F)c4Cl)c3c2)cnn1C` [Example 127, (2R)-3-(3-Chloro-2-{(1S)-1-[5-(1,5-dimethyl-1H-pyrazol-4-yl)-1H-pyrrolo[2,3-b]pyridin-3-yl]ethyl}-4-fluorophenoxy)propane-1,2-diol], the IC50 in the test on MKN45 cells is > 1000 nM; with Karpas-299 cells, 200 to 1000 nM; at Aurora B, > 1000 nM.
On to `COc1ccc(F)c(Cl)c1[C@@H](C)c1c[nH]c2ncc(-c3cnn([C@H]4CC[C@H](O)CC4)c3C(F)(F)F)cc12` [Example 40, trans-4-[4-{3-[(1S)-1-(2-Chloro-3-fluoro-6-methoxyphenyl)ethyl]-1H-pyrrolo[2,3-b]pyridin-5-yl}-5-(trifluoromethyl)-1H-pyrazol-1-yl]cyclohexanol], for which the concentration for half-maximal inhibition (IC50) with MKN45 cells is 50 to 200 nM; at RON it was > 1000 nM; with Karpas-299 cells, > 1000 nM.
For the molecule `COc1ccc(F)c(Cl)c1[C@@H](C)c1c[nH]c2ncc(-c3cn(C[C@H](O)CO)nc3C)cc12` [Example 9, (2S)-3-(4-{3-[(1S)-1-(2-Chloro-3-fluoro-6-methoxyphenyl)ethyl]-1H-pyrrolo[2,3-b]pyridin-5-yl}-3-methyl-1H-pyrazol-1-yl)propane-1,2-diol], the figures for the IC50 with MKN45 cells, in the test on Karpas-299 cells and at Aurora B were ≤ 50 nM, ≤ 50 nM and 200 to 1000 nM, respectively.

(Values after US8445510B2, “Fused bicyclic kinase inhibitors” (OSI Pharmaceuticals, LLC, priority 2011, dated 2013).)
